This note sets out measurements from a melting point compilation (Tetko et al.; mined from patent text by program, amines drawn as free bases though some values may be those of a salt).

In turn, `Cc1c(C=O)c2cc(F)ccc2n1-c1ccc(OCc2ccccc2)cc1` displayed a melting point of 219 to 220 °C.

As to `CCCc1c[nH]c(-c2ccnc(NC(=O)c3ccccc3)c2)n1`, the melting point lay within 95 to 97 °C. `CC(=O)Nc1c(OC(C)=O)cc2c(c1[N+](=O)[O-])CCC2` showed a melting point of 168 to 170 °C. In the case of `O=c1cc(Nc2cc([N+](=O)[O-])ccc2Cl)[nH]n1-c1c(Cl)cc(Cl)cc1Cl`, the melting point lay in the range of 274 to 278 °C. Take `Cc1ccc(S(=O)(=O)OC[C@H]2CN(c3ccc(N4CCSCC4)c(F)c3)C(=O)O2)cc1`: the melting point worked out at 141 °C. Compound `O[C@@H](CNCCOc1ccc2oc(-c3noc(C(F)(F)F)n3)cc2c1)COc1ccccc1` gave a melting point of 108 to 113 °C. Regarding `CS(=O)(=O)c1cc2c(c(C=O)c1O)CCC2`, the melting point lay in the range of 152 to 153 °C.

`CS(=O)(=O)c1ccc(-c2cnn(-c3ccc(F)cc3)c(=O)c2C#Cc2ccccc2)cc1` yielded a melting point of 203 to 204 °C. As to `CN1CCC2(CC1)c1ccccc1C(O)c1ccccc12`, the melting point was 208 to 210 °C. Next, `COc1ccc(C=CC(=O)O)cc1-c1cc2c(cc1OCCCCCCCC(=O)O)C(C)(C)CCC2(C)C`: 212 to 214 °C. With `N#CCc1ccc(CN2CCN(c3ccc(F)cc3)CC2)cc1`, the melting point is 111 to 113 °C.

In the case of `CC(=O)Nc1nc(CCc2ccc(NC(=N)N)cc2)c(Cc2ccc(S(C)(=O)=O)cc2)s1`, the melting point is 228 to 230 °C. `CC1OC(n2c(Cl)nc3cc(Cl)c(Cl)cc32)C(O)C1O` (stereo not given) came in with a melting point of 85 to 86 °C. As for `Fc1c(OCc2ccccc2)ccc(-c2ncc(Br)cn2)c1F`, the melting point was 138 °C. Next, `Nc1cccc(CNC(=O)c2[nH]c3ccc(Cl)cc3c2S(=O)(=O)c2ccccc2)c1`: 247 to 249 °C; `O=C(O)CCCCn1ccc2cc([N+](=O)[O-])ccc21`: 141 to 142 °C; `CCC12CCC3c4ccc(OC)cc4C(C)CC3C1CCC2O` (stereo not given): 150 to 160 °C. `COC(=O)C(C)(C(=O)OC)C(C[N+](=O)[O-])c1ccccc1` (stereo not given) returned a melting point of 130 to 132 °C. `CCCSc1cscc1S(=O)(=O)NC(C)(C)C` yielded a melting point of 61 to 63 °C. The compound `c1cc(OCC2CO2)c2cn[nH]c2c1` (stereo not given) had a melting point of 60 °C.

Turning to `CSC1=NC2=NC3=C(CNCC3=O)CN2N1`, the melting point lay in the range of 266 to 269 °C. In the case of `CCOC(=O)NCc1cc(-c2ccccc2)no1`, the melting point worked out at 82 °C. Next, `COc1cc(C)c(NS(=O)(=O)N(C)C)cc1C(=O)NCC1CCCO1` (stereo not given): 130 to 131 °C. In turn, `O=[N+]([O-])c1cc(F)c(O)c(F)c1` registered a melting point of 98.4 to 101 °C.

With `C#CCNC(=NCCSCc1ccccn1)NC#N`, the melting point lay in the range of 124 to 130 °C.

For `CCCCCCCCCCSC(=S)N1Cc2[nH]c3ccccc3c2CC1CO` (stereo not given), the melting point was 115 to 118 °C. For `CCC(=O)N(C)c1cccc(-c2ccnc3c(C(=O)c4cccs4)cnn23)c1`, the melting point is 186 to 187 °C. Next, `O=C(c1cc(C(F)(F)F)cc(C(F)(F)F)c1)N1CCC2(CC1)C(=O)N(c1cc(Cl)ncn1)CN2c1ccccc1`: 212 to 214 °C; `Cc1c(-c2ccc(O)cc2)n(Cc2ccc(OCCN3CCCCC3C)cc2)c2ccc(O)cc12` (stereo not given): 121 to 123 °C. `O=CNCC1=CNCN1[C@H]1CCc2c(F)cc(F)cc2C1`: the melting point was in the range of 194 to 195 °C. Next, `O=C(O)CCCOc1ccc(-c2ccc(-c3c(Cc4ccccc4)sc4ccccc34)cc2)cc1Br`: 135 to 137 °C; `COc1ccc(C(=O)Nc2ccc3ccc(C=CN(C)C)nc3n2)cc1`: 240 °C. With `Cc1nc2c(-c3ccc(N4CCN(C)CC4)cc3)cnn2c(N)c1-c1ccc(F)c(Cl)c1`, the melting point fell in the range of 264 to 265 °C. Regarding `N#Cc1cnc(N)nc1-c1ccc(Cl)cc1C(=O)c1ccccc1F`, the melting point lay in the range of 153 to 157 °C. Regarding `OCCNC(=S)NC(=Nc1ccccc1)c1ccccc1`, the melting point is 144 to 145 °C. Compound `CC1=Nc2ccccc2C(=O)C1` displayed a melting point of 198 to 200 °C. The figure for `C=CCNC(=O)C1CCc2cc(Cl)ccc2O1` (stereo not given) is 112 to 114 °C; for `CC12CCCC1C1CCc3cc(C(=O)O)ccc3C1CC2` (stereo not given) it is 235 to 240 °C; for `COC(=N)CCSCc1csc(N=C(N)N)n1` it is 126 °C. For `O=C(NC(=O)c1ccccc1)NC1CCN(CC(=O)C2COc3ccccc3O2)CC1` (stereo not given), the melting point was in the range of 160 to 161 °C. `O=C(O)c1c(OCc2ccccc2)ccc2ccccc12`: the melting point was in the range of 127 to 128 °C.

Regarding `COC(=O)c1ccc(C)cc1N(C)S(C)(=O)=O`, the melting point was in the range of 100 to 103 °C. As to `CCOC(=O)CCC(O)c1cnc2c(OC)cccc2c1Nc1ccccc1C` (stereo not given), the melting point is 133 to 135 °C. For the compound `CCC(=O)c1cnc2c(OCCO)cccc2c1Nc1ccc(F)cc1C`, the melting point fell in the range of 170 to 172 °C. `CCc1nn(COC(N)=O)c(CC)c1Cc1cc(Cl)cc(Cl)c1` registered a melting point of 153 to 155 °C. `N=C(Nc1ccc(Cl)cc1)Nc1ncccc1OCc1c(F)ccc(F)c1F` registered a melting point of 153 to 156 °C. Turning to `CSc1nc(SC)c(NC(=O)CCCCCSc2nc3ccccc3o2)c(SC)n1`, the melting point fell in the range of 149 to 153 °C. Take `CCCCOC(=O)c1ccc(NC2=NC3=NC(Nc4ccc(C(=O)OCCCC)cc4)=NC4=NC(Nc5ccc(C(=O)OCCCC)cc5)=NC(=N2)N34)cc1`: the melting point lay within 289 to 290 °C. With `COc1cc(/C=C/c2ccc(N)cc2)cc(OC)c1OC`, the melting point was in the range of 251 to 253 °C. `COc1ccc2c(c1)C(C)(Cl)C(=S)N2` (stereo not given) showed a melting point of 202 to 204 °C. In turn, `COCOc1ccc(CCC(=O)c2c(OC)cc(OC)c(CCC(C)C)c2O)cc1OC` yielded a melting point of 69 to 70 °C. Turning to `Cc1nn(CC(F)(F)COC(=O)CN)c(-c2ccc(F)cc2)c1-c1ccc2c(c1)NC(=O)CO2`, the melting point lay in the range of 142 to 146 °C. As to `CC1c2cc(C(C)(C)C)cc(C(C)(C)C)c2O[Si](C)(C)Oc2c1cc(C(C)(C)C)cc2C(C)(C)C`, the melting point lay in the range of 171 to 177 °C. Consider `CCCCc1nc2c(N)nc3cc(CCc4ccccc4)ccc3c2n1CC(C)C`, for which the melting point fell in the range of 181 to 182 °C.

Take `CC(C)C(=O)C(C)(C)SN(C)C(=O)ON=C1SC(C)(C)C(=O)N1C`: the melting point lay in the range of 112 to 114 °C. The figure for `CC(C)(C)c1nc(C=O)cc(N)c1F` is 129 to 130 °C. Next, `O=C1CCC(O)(c2ccc(Cl)c(Cl)c2)CN1Cc1ccccc1` (stereo not given): 128 °C. The figure for `O=[N+]([O-])c1ccc(F)c(CNCCO)c1` is 93 to 94 °C; for `CC(=O)CC(=O)C=Cc1c[nH]c2ccccc12` it is 155 to 158 °C.

Turning to `O=C(O)CP(=O)(O)C(CCCc1ccccc1)NC(=O)c1ccccc1` (stereo not given), the melting point was 170 to 175 °C. The figure for `NS(=O)(=O)c1cccc(C(O)CO)c1` (stereo not given) is 170 to 171 °C.

For `CCCCCCCCC(CCC)CC(=O)Nc1ccccc1` (stereo not given), the melting point lay within 98 to 100 °C. In turn, `CCCc1ccc2nnc(C(=O)OCC)cc2c1` showed a melting point of 88 to 89 °C. `CCN(CC)CCNC(=O)c1nc(Cl)c(N)nc1OC` registered a melting point of 158 °C.

The compound `COC(=O)C(NC(=O)C=Cc1ccccc1)C(=O)C(C)C` (stereo not given) registered a melting point of 74 to 75 °C. As for `O=C(O)C1=Cc2cc(Cl)c(Oc3ccc(Cl)cc3Cl)cc2OC1C(F)(F)F` (stereo not given), the melting point lay in the range of 233 to 234 °C. `CC(C)CN1CCC(c2ccc(Br)cc2)CC1` displayed a melting point of 36 to 37 °C.

`COc1ccc2c(c1)C(CCNC(=O)C(C)C)CC2` (stereo not given): the melting point lay within 104 to 105 °C. The figure for `CC(C)c1nc(CNC(=O)C(F)(F)F)n(C)c1Sc1cc(Cl)cc(Cl)c1` is 157 to 158 °C; for `COC(=O)CC(=O)CC(O)/C=C/c1c(-c2ccc(F)cc2)n(C(C)C)c(=O)c2ccccc12` (stereo not given) it is 147 to 149 °C.

The compound `COc1ccc(-c2[nH]nc3c2C(=O)c2c(NC(=O)N[C@@H]4CCCC[C@@H]4N)cccc2-3)cc1` (relative stereo) returned a melting point greater than 300 °C. Consider `CCCOc1ccccc1-c1nc2[nH]c(=O)nnc2c(=O)[nH]1`, for which the melting point fell in the range of 298 to 299 °C. As for `O=c1c(Br)c(O)ccn1Cc1ccc(O)cc1`, the melting point was in the range of 102 to 108 °C. The compound `Cc1ccc(Nn2c(-c3ccccc3)c(C)[nH]c2=S)cc1C` had a melting point of 228 °C. `O=C1c2ccccc2C(=O)N1CCc1c[nH]c2ccc(CNS(=O)(=O)c3ccccc3)cc12` had a melting point of 225 to 226 °C.

Compound `O=C1Nc2cc(NC(=O)c3c[nH]cc(-c4ccc(F)cc4)c3=O)c(F)cc2/C1=C/c1ccc[nH]1` returned a melting point greater than 300 °C. Regarding `CS(=O)(=O)c1ccc(N2CC(O)(C(F)(F)F)N=C2c2ccccc2)cc1` (stereo not given), the melting point was in the range of 189 to 190 °C.

With `COc1cc(Nc2c(C#N)cnc3ccc(/C=C/CCN4CCOCC4)cc23)c(Cl)cc1Cl`, the melting point is 95 to 96 °C. `CCOC(=O)c1ccc(COc2cccc(O)c2C=O)cc1` returned a melting point of 105 to 107 °C. Compound `OCCOCc1csc2ccccc12` yielded a melting point of 149 to 150 °C. Consider `Fc1ccc(Nc2ncnc3cnc(NCC4CCNCC4)nc23)cc1Cl`, for which the melting point lay within 204 to 206 °C. `O=S(=O)(c1ccc(-c2ccc(C(O)CCl)cc2)cc1)C(F)F` (stereo not given) came in with a melting point of 104 to 107 °C.

In turn, `O=C(O)c1ccccc1-c1ccc(C(F)(F)F)c(Cl)c1` gave a melting point of 181 to 184 °C. For `O=P(O)(O)CCCCCCCCCCCO`, the melting point is 109 to 112 °C. The figure for `Cc1c(N)c(C)c2c(-c3ccc(C4CCCCC4)cc3)coc2c1C` is 139 to 140 °C; for `O=C(CC1CCCC1)NC[C@H]1CN(c2ccc3c(c2)CCCc2cnoc2-3)C(=O)O1` it is 193 to 195 °C. `OCc1ccc(I)c(Cl)c1` displayed a melting point of 80 to 82 °C.

For `Cc1ccccc1C(=O)Nc1ccc(C(=O)N2CCCC(COS(C)(=O)=O)c3ccccc32)cc1` (stereo not given), the melting point lay within 189 to 190 °C.

In turn, `CCCCCCCC(=O)NCc1cccc(-c2ccc(C=CC(=O)O)cc2)c1` gave a melting point of 176 °C.

Compound `CC#COc1ccc2oc3ccccc3c(=O)c2c1` returned a melting point of 153 to 154 °C.
